Measurements from patent US7173021B2, “Synthesis of temozolomide esters as potent anticancer pro-drugs for topical and transdermal applications in treatments of cancers” (Tianjin North Pharm Sci-Tech Co., Ltd., priority 2004, dated 2007).
≈ marks a conversion by molar mass, not a printed value.

Key:
[1] = Solubility in 10% v/v propylene glycol; format: physicochemical; details: ambient conditions, stirred 5 hours; for solubility at 5 h: 10% v/v propylene glycol aqueous solution, aqueous with cosolvent or surfactant or cyclodextrin, thermodynamic from solid, read-out: Solubility, Concentration
Description: The potential of temozolomide esters used as topical and transdermal prodrugs is first proven through studies of their solubility. That is a decreased trend of solubility in an aqueous solution with increase of the length of the ester hydrocarbon alkyl chain of the temozolomide esters. It is clear the solubility constantly decreases from the methyl ester to the octyl ester, while temozolomide itself is 3.0 mg/ml similar to that of the methyl ester. […] Similarly to the esters, the solubility of the temozolomide amide products in the aqueous solution is considerably lower than that of temozolomide.
The solubility of temozolomide and the temozolomide esters was determined in 10% v/v propylene glycol by stirring an excess of the solid products at room temperature for 5 hours. The mixtures were then filtered, diluted with sample solvent and analysed using HPLC.

[2] = In vitro permeation, Franz diffusion cell, silicone membrane; format: in vitro ADME; details: 37° C., 8 h
Description: Jacketed Franz-type diffusion cells were used throughout the study and the barrier (12) (skin or silicone membrane) was mounted between the two chambers (14, 16) (2.8–3.4 cm^2 available surface area) with the dermal side in contact with the receiver solution (FIG. 2). The diffusion chambers (10) comprised a barrier of skin or silicone membrane (12) mounted between two chambers (14, 16). A cap (18) formed the donor compartment (14). The second receptor compartment (16) contained a receptor cell (20) with a stirring bar (22), sampling port (24) and cover (26). The stirring bar (22) was stirred by means of a magnet plate (28) having a rotating magnet. The receptor compartment comprised a water jacket (30) having a water inlet (32) and a water outlet (34).
Three types of materials were used in permeation studies. • 1. Silicone membrane (Silastic Medical Grade, 500-5, Dow Corning 0.005 in thick) was cut into circular sections (2 cm diameter) and washed with double distilled water prior to use. • 2. Full-thickness rat skin was obtained from Male Wistar rats aged 10 to 12 weeks and weighing 250 to 300 g, which were sacrificed by cervical dislocation, the abdomen shaved and the intact skin removed by dissection. Following removal of fat tissue, the skin was cut into circular pieces and used immediately. • 3. Samples of adult human epidermis were purchased from the Stephen Kirby Skin Bank (UK). The samples were from the leg, were stored at −18° C. and used within one week. Experiments
The membrane (as detailed above) was mounted on the diffusion cell (10), on which the surface area available for diffusion of each cell was about 2.8–3.4 cm^2. The cell cap (18) was placed on the membrane (12), and it was sealed with Parafilm® connecting the cell cap, membrane, and receptor cell. The capacity of each receptor cell was around 25–26 ml, which was filled with receptor solution and was completely in contact with the membrane sheet. During the course of experiment, the solution was continuously stirred by teflon-coated magnetic bar (22) placed in the cell (20). The temperature was maintained at 37° C. by a thermostatic water pump that circulated the water through the jacket (30) surrounding the cell body. The system was allowed to equilibrate under these conditions for half an hour. Finally, the prepared sample solution (2 ml) was added into the donor cap cell, and it was sealed with Parafilm® to minimize the evaporation of donor solution. 1 ml of receptor solution was removed every 30 minutes for 5 hours and then every 60 minutes for a further 3 hours. The volumes withdrawn were always replaced with equal volumes of fresh receptor solution to maintain constant volume. The concentration of each sample solution was determined by using HPLC.
For every sample, six determinations were performed on human and rat skin, and three determinations were carried out through artificial silicone membrane.
As stated above, after the removal of receptor solution, the receiver compartment was refilled with an identical volume of receptor fluid. This causes of the dilution of receptor solution leading to an under determination of the sample concentration. As a consequence, it was necessary to mathematically correct each successive sample concentrations, in the present invention, which was determined by applying the following equation:
[formula] where Ct is the actual current concentration of drug in the receptor phase at time t, Cmt is the apparent (i.e. measured) current concentration of drug in the receptor phase, Vs is the sample volume withdrawn for analysis, Vr is the volume of receptor solution, and ΣCm is the summed total of the previous measured concentrations.
Finally, the amount of drug penetrating the skin per unit area was calculated by dividing the obtained concentrations by the surface area available for diffusion cell and this value was different for each individual cell. […]

[3] = tested on: MV3 (human melanoma); test: In vitro tumour cell growth inhibition (MTT), MV3; format: cell-based; details: 96 h; for IC50: Homo sapiens
Description: (§1) Temozolomide (white powder), temozolomide acid (white powder) and temozolomide-8-carboxylate hexyl (white scale crystal) were made in house. For the estimation of in vitro tumour cell growth inhibition, MV3 (human melanoma), M14 (human melanoma), B16 and B16-BL6 (mouse melanoma), SHG-44, TJ899 and TJ905 (human glioma), MCF-7 (human breast), HCT-8 (human colon), A549 (human non small lung), Bel7402 (human hepatocellulor), and BGC-823 (human stomach) were used. All tumour cells were cultured in RPMI-1640 medium supplemented with 10% fetal bovine serum (FBS) at 37° C. in a humidified 5% CO2 incubator.
(§2) After being harvested from culture flasks, a cell suspension of 1×10^4/ml was made by using 1640 RPMI medium supplemented with 10% fetal bovine serum. 100 μl (contains 1000 tumour cells) of the cell suspension was seeded per well of 96-well flat-bottom Costar culture plates at 37° C. in a humidified 5% CO2 incubator for 24 hrs before introducing drugs. Each tested compounds was made for five different concentrations and 100 μl of the each concentration was introduced into parallel three wells; control wells were added with 100 μl of plain medium alone; fluorouracil (a chemotherapeutic antitumour drug) was used as the positive control. Cells were then incubated for 96 h. Proliferative response and cell death were determined using MTT (3-(4,5-dimethylthiazolyl)-2,5-diphenyl-tetrazolium bromide) assay.
(§3) MTT assay: Following incubation of cells with the tested compounds for 96 h, 100 μl of 0.4 mg/ml MTT in RPMI 1640 was added to each well and the plate was incubated at 37° C. for 4 h. The plate was then centrifuged and followed by removal of medium. 150 μl of DMSO was then added to dissolve formazan crystal. DMSO-added plates were placed on a plate shaker for 5 min and absorbance was measured spectrophotometrically at 540 nm (with reference wavelength at 450 nm) using a Benchmark microtiter plate reader (Bio-Rad 550, Bio-Rad Laboratories, CA, U.S.A.).
(§4) The IC50 was calculated from the curve of the tested compound concentrations against the inhibition rate of the tumour cells. Table 1 summarized the experiment results by using six human cancer cell lines, HCT-8 (colon carcinoma), A549 (non small lung carcinoma), MCF-7 (breast), Bel7402 (hepatocellulor carcinoma), BGC-823 (stomach adenocarcinoma), and MV3 (melanoma). Table 2 summarized the results from the experiment results by using two human melanoma cell lines, MV3 and M14, two mouse melanoma cell lines, B16 and B16-BL6, and three human glioma cell lines, TJ899, SHG-44 and TJ905.

[4] = tested on: M14 (human melanoma); test: In vitro tumour cell growth inhibition (MTT), M14; format: cell-based; details: Table 2 experiment, 96 h
Description: as §1, §2, §3, §4

[5] = tested on: B16 (mouse melanoma); test: In vitro tumour cell growth inhibition (MTT), B16; format: cell-based; details: Table 2 experiment, 96 h
Description: as §1, §2, §3, §4

[6] = tested on: B16-BL6 (mouse melanoma); test: In vitro tumour cell growth inhibition (MTT), B16-BL6; format: cell-based; details: 96 h
Description: as §1, §2, §3, §4

[7] = tested on: TJ899 (human glioma); test: In vitro tumour cell growth inhibition (MTT), TJ899; format: cell-based; details: Table 2 experiment, 96 h
Description: as §1, §2, §3, §4

[8] = tested on: SHG-44 (human glioma); test: In vitro tumour cell growth inhibition (MTT), SHG-44; format: cell-based; details: 96 h
Description: as §1, §2, §3, §4

[9] = tested on: TJ905 (human glioma); test: In vitro tumour cell growth inhibition (MTT), TJ905; format: cell-based; details: Table 2 experiment, 96 h
Description: as §1, §2, §3, §4

[10] = tested on: MCF-7 (human breast); test: In vitro tumour cell growth inhibition (MTT), MCF-7; format: cell-based; details: MCF7, Table 1 experiment, 96 h
Description: as §1, §2, §3
(§5) The IC50 was calculated from the curve of the tested compound concentrations against the inhibition rate of the tumour cells. […]

[11] = tested on: Bel7402 (human hepatocellulor); test: In vitro tumour cell growth inhibition (MTT), Bel-7402; format: cell-based; details: Table 1 experiment, 96 h
Description: as §1, §2, §3, §5

[12] = tested on: A549 (human non small lung); test: In vitro tumour cell growth inhibition (MTT), A549; format: cell-based; details: Table 1 experiment, 96 h
Description: as §1, §2, §3, §5

[13] = tested on: HCT-8 (human colon); test: In vitro tumour cell growth inhibition (MTT), HCT-8; format: cell-based; details: Table 1 experiment, 96 h
Description: as §1, §2, §3, §5

[14] = tested on: BGC-823 (human stomach); test: In vitro tumour cell growth inhibition (MTT), BGC-823; format: cell-based; details: Table 1 experiment, 96 h
Description: as §1, §2, §3, §5

Structure (SMILES): CCCCCCCCOC(=O)c1ncn2c(=O)n(C)nnc12 [Temozolomide n-octyl ester, n-Octyl 3,4-dihydro-3-methyl-4-oxoimidazo[5,1-d]-1,2,3,5-tetrazine-8-carboxylate]
- solubility at 5 h [1]: 300 µg/mL (≈ 976 µM)
- Permeation through synthetic silicone membrane ([2]; FIGS. 3-5, listed as n-octyl ester): passed through the membrane far more efficiently
- Permeation through synthetic silicone membrane ([2]; FIGS. 3-5, listed as octyl ester): significantly less than the hexyl ester

Structure (SMILES): CCC(C)NC(=O)c1ncn2c(=O)n(C)nnc12 (centres unmarked) [Temozolomide sec-butyl amide]
- Solubility, Concentration [1]: 1800 µg/mL (≈ 7190 µM)

Structure (SMILES): Cn1nnc2c(C(=O)NC(C)(C)C)ncn2c1=O [Temozolomide t-butyl amide, 3-Methyl-N-(tert-butyl)-4-oxoimidazo[5,1-d]-1,2,3,5-tetrazine-8-carboxamide]
- solubility at 5 h [1]: 1400 µg/mL (≈ 5590 µM)

Structure (SMILES): CC(C)NC(=O)c1ncn2c(=O)n(C)nnc12 [Temozolomide isopropyl amide, 3-Methyl-N-(iso-propyl)-4-oxoimidazo[5,1-d]-1,2,3,5-tetrazine-8-carboxamide]
- solubility at 5 h [1]: 2800 µg/mL (≈ 11900 µM)

Structure (SMILES): O=NN(CCCl)C(=O)NCCCl [Carmustine]
- IC50 ([3]; Table 2 experiment (separate)): 6.35 µg/mL (≈ 29.7 µM)
- IC50 ([4]; Homo sapiens): 28.7 µg/mL (≈ 134 µM)
- IC50 ([5]; Mus musculus): 7.75 µg/mL (≈ 36.2 µM)
- IC50 ([6]; Mus musculus, B16-BL6, Table 2 experiment): 13.1 µg/mL (≈ 61.3 µM)
- IC50 ([7]; Homo sapiens): 54.2 µg/mL (≈ 253 µM)
- IC50 ([8]; Homo sapiens, SHG-44, Table 2 experiment): 7.2 µg/mL (≈ 33.6 µM)
- IC50 ([9]; Homo sapiens): 67.3 µg/mL (≈ 314 µM)

Structure (SMILES): CCCOC(=O)c1ncn2c(=O)n(C)nnc12 [Temozolomide n-propyl ester, n-Propyl 3,4-dihydro-3-methyl-4-oxoimidazo[5,1-d]-1,2,3,5-tetrazine-8-carboxylate]
- solubility at 5 h [1]: 2000 µg/mL (≈ 8430 µM)
- Permeation through synthetic silicone membrane ([2]; FIGS. 3-5): passed through the membrane far more efficiently

Structure (SMILES): CN(C)/N=N/c1[nH]cnc1C(N)=O [Darcabazine]
- IC50 MV3 ([3]; Table 2 experiment (separate)): 0.647 µg/mL (≈ 3.55 µM)
- IC50 M14 [4]: 0.558 µg/mL (≈ 3.06 µM)
- IC50 B16 [5]: 10.000 µg/mL (≈ 54.9 µM)
- IC50 B16-BL6 ([6]; Table 2 experiment): 61.765 µg/mL (≈ 339 µM)
- IC50 TJ899 [7]: 5.600 µg/mL (≈ 30.7 µM)
- IC50 SHG-44 ([8]; Table 2 experiment): 1.261 µg/mL (≈ 6.92 µM)
- IC50 TJ905 [9]: 6.860 µg/mL (≈ 37.7 µM)

Structure (SMILES): CCCCOC(=O)c1ncn2c(=O)n(C)nnc12 [Temozolomide n-butyl ester, n-Butyl 3,4-dihydro-3-methyl-4-oxoimidazo[5,1-d]-1,2,3,5-tetrazine-8-carboxylate]
- solubility at 5 h [1]: 1400 µg/mL (≈ 5570 µM)
- Permeation through synthetic silicone membrane ([2]; FIGS. 3-5): passed through the membrane far more efficiently

Structure (SMILES): CCOC(=O)c1ncn2c(=O)n(C)nnc12 [Temozolomide ethyl ester, Ethyl 3,4-dihydro-3-methyl-4-oxoimidazo[5,1-d]-1,2,3,5-tetrazine-8-carboxylate]
- solubility at 5 h [1]: 2500 µg/mL (≈ 11200 µM)
- Permeation through synthetic silicone membrane ([2]; FIGS. 3-5): can not pass through the synthetic membrane easily

Structure (SMILES): O=c1[nH]cc(F)c(=O)[nH]1 [Fluorouracil, fluorouracil, reference compound]
- IC50 ([3]; Table 1 experiment): 0.427 µg/mL (≈ 3.28 µM)
- IC50 [10]: 0.629 µg/mL (≈ 4.84 µM)
- IC50 [11]: 0.495 µg/mL (≈ 3.81 µM)
- IC50 [12]: 0.126 µg/mL (≈ 0.969 µM)
- IC50 [13]: 0.606 µg/mL (≈ 4.66 µM)
- IC50 [14]: 0.722 µg/mL (≈ 5.55 µM)
